Source: article PMC7525662, “Preclinical dosimetry models and the prediction of clinical doses of novel positron emission tomography radiotracers” (Scientific Reports, 2020)
Marks after values point to notes of the source that are not given here.

What was measured:
Design in all cases: species or system Sprague–Dawley rats
[1] = Residence times in rat source organs from whole-body PET, FBP reconstruction; conditions: in vivo, iv
Experimental: (§1) Immediately after radiotracer administration, a 240 min emission scan using 4 beds (50% overlap) was obtained using 3-dimensional 1:5 mode and re-binned as follows: 7 × 1 min, 2 × 5 min and 4 × 10 min. Throughout the PET/CT scanning session, animal temperature and respiration rate were monitored and controlled. PET studies were reconstructed using filtered-back projection (FBP) and Mediso’s iterative Tera-Tomo 3D reconstruction algorithm with the following settings: 4 iterations, 6 subsets, full detector model, normal regularization, spike filter on, voxel size 0.4 mm and 400‒600 keV energy window. PET data were corrected for randoms, scatter and attenuation. […] Then, PMOD’s contours interpolation tool was used to interpolate ROIs for each organ into a corresponding volume-of-interest (VOI). A static cuboidal VOI was also drawn to include the animal whole-body. Time-activity curves for each source organ, whole-body and remainder of the body were plotted. […] Residence times (τ) were determined for each radiotracer in source organs, whole-body and remaining (any activity assigned to the whole-body but not assigned to a source organ). Each preclinical source organ’s τ was determined by calculating the area under its respective time-activity curve (activity normalised to the percentage maximum injected dose as a function of time) using the trapezoid method. […] From each individual animal, eight dosimetry models were constructed from all possible combinations of image reconstruction method (FBP or iterative), τ (non-normalised or normalised to human organ masses), and sex of phantom (male or female).

[2] = Residence times in rat source organs from whole-body PET, iterative reconstruction; conditions: in vivo, iv
Experimental: as §1

[3] = OLINDA/EXM predicted clinical doses: adult male phantom, normalised τ, FBP; conditions: rat, in vivo
Experimental: (§2) PET studies were reconstructed using filtered-back projection (FBP) and Mediso’s iterative Tera-Tomo 3D reconstruction algorithm with the following settings: 4 iterations, 6 subsets, full detector model, normal regularization, spike filter on, voxel size 0.4 mm and 400‒600 keV energy window. PET data were corrected for randoms, scatter and attenuation. Time-activity curves for each source organ, whole-body and remainder of the body were plotted. […] Residence times (τ) were determined for each radiotracer in source organs, whole-body and remaining (any activity assigned to the whole-body but not assigned to a source organ). Each preclinical source organ’s τ was determined by calculating the area under its respective time-activity curve (activity normalised to the percentage maximum injected dose as a function of time) using the trapezoid method. […] From each individual animal, eight dosimetry models were constructed from all possible combinations of image reconstruction method (FBP or iterative), τ (non-normalised or normalised to human organ masses), and sex of phantom (male or female).

[4] = OLINDA/EXM predicted clinical doses: adult male phantom, normalised τ, iterative; conditions: rat, in vivo
Experimental: as §2, with “female). Supplementary table 11. Predicted clinical absorbed organ doses and whole-body effective doses of PET radiotracers using normalised adult male source organ residence times from iterative reconstructions.” for “female).”

O=C[C@H]([18F])[C@@H](O)[C@H](O)[C@H](O)CO [FDG, 2-deoxy-2-[^18F]fluoro-D-glucose]
Residence Time (h), Average: Brain [1]: 0.0124 h
Residence Time (h), Average: Heart [1]: 0.0158 h
Residence Time (h), Average: Intestine [1]: 0.372 h
Residence Time (h), Average: Kidneys [1]: 0.0215 h
Residence Time (h), Average: Liver [1]: 0.0249 h
Residence Time (h), Average: Lungs [1]: 0.0155 h
Residence Time (h), Average: Remaining [1]: 2.1 h
Residence Time (h), Average: Urinary Bladder [1]: 0.65 h
Residence Time (h), Average: Brain [2]: 0.0254 h
Residence Time (h), Average: Heart [2]: 0.0387 h
Residence Time (h), Average: Intestine [2]: 0.287 h
Residence Time (h), Average: Kidneys [2]: 0.0499 h
Residence Time (h), Average: Liver [2]: 0.0417 h
Residence Time (h), Average: Lungs [2]: 0.0166 h
Residence Time (h), Average: Remaining [2]: 1.35 h
Residence Time (h), Average: Urinary Bladder [2]: 1.15 h
Effective Dose (mSv/MBq), Average ± SD [3]: 2.62E-02 mSv/MBq
Estimated Absorbed Dose of Organ, Average: Adrenals [3]: 1.23E-02 mGy/MBq
Estimated Absorbed Dose of Organ, Average: Brain [3]: 8.73E-03 mGy/MBq
Estimated Absorbed Dose of Organ, Average: Breasts [3]: 9.14E-03 mGy/MBq
Estimated Absorbed Dose of Organ, Average: Gallbladder Wall [3]: 1.25E-02 mGy/MBq
Estimated Absorbed Dose of Organ, Average: Heart Wall [3]: 3.82E-02 mGy/MBq
Estimated Absorbed Dose of Organ, Average: Kidneys [3]: 1.43E-02 § mGy/MBq
Estimated Absorbed Dose of Organ, Average: Liver [3]: 7.98E-03 mGy/MBq
Estimated Absorbed Dose of Organ, Average: Lungs [3]: 1.48E-02 mGy/MBq
Estimated Absorbed Dose of Organ, Average: Muscle [3]: 1.13E-02 mGy/MBq
Estimated Absorbed Dose of Organ, Average: Osteogenic Cells [3]: 1.67E-02 mGy/MBq
Estimated Absorbed Dose of Organ, Average: Pancreas [3]: 1.31E-02 mGy/MBq
Estimated Absorbed Dose of Organ, Average: Red Marrow [3]: 1.11E-02 mGy/MBq
Estimated Absorbed Dose of Organ, Average: Skin [3]: 8.54E-03 mGy/MBq
Estimated Absorbed Dose of Organ, Average: Small Intestine [3]: 1.55E-02 mGy/MBq
Estimated Absorbed Dose of Organ, Average: Spleen [3]: 1.20E-02 mGy/MBq
Estimated Absorbed Dose of Organ, Average: Stomach Wall [3]: 1.26E-02 mGy/MBq
Estimated Absorbed Dose of Organ, Average: Testes [3]: 1.22E-02 mGy/MBq
Estimated Absorbed Dose of Organ, Average: Thymus [3]: 1.17E-02 mGy/MBq
Estimated Absorbed Dose of Organ, Average: Thyroid [3]: 1.09E-02 ± 1.11E-03 mGy/MBq
Estimated Absorbed Dose of Organ, Average: Total Body [3]: 1.17E-02 mGy/MBq
Estimated Absorbed Dose of Organ, Average: ULI Wall [3]: 1.39E-02 mGy/MBq
Estimated Absorbed Dose of Organ, Average: Urinary Bladder Wall [3]: 8.88E-02 ‡ mGy/MBq
Effective Dose [4]: 2.46E-02 mSv/MBq
Estimated Absorbed Dose of Organ, Adrenals [4]: 9.55E-03 mGy/MBq
Estimated Absorbed Dose of Organ, Brain [4]: 1.47E-02 mGy/MBq
Estimated Absorbed Dose of Organ, Breasts [4]: 6.86E-03 mGy/MBq
Estimated Absorbed Dose of Organ, Gallbladder Wall [4]: 9.38E-03 mGy/MBq
Estimated Absorbed Dose of Organ, Heart Wall [4]: 8.18E-02 ‡ mGy/MBq
Estimated Absorbed Dose of Organ, Kidneys [4]: 2.30E-02 mGy/MBq
Estimated Absorbed Dose of Organ, LLI Wall [4]: 7.18E-02 § mGy/MBq
Estimated Absorbed Dose of Organ, Liver [4]: 9.11E-03 mGy/MBq
Estimated Absorbed Dose of Organ, Lungs [4]: 1.46E-02 mGy/MBq
Estimated Absorbed Dose of Organ, Muscle [4]: 8.37E-03 mGy/MBq
Estimated Absorbed Dose of Organ, Osteogenic Cells [4]: 1.16E-02 mGy/MBq
Estimated Absorbed Dose of Organ, Pancreas [4]: 1.00E-02 mGy/MBq
Estimated Absorbed Dose of Organ, Red Marrow [4]: 8.31E-03 mGy/MBq
Estimated Absorbed Dose of Organ, Skin [4]: 5.99E-03 mGy/MBq
Estimated Absorbed Dose of Organ, Small Intestine [4]: 1.15E-02 mGy/MBq
Estimated Absorbed Dose of Organ, Spleen [4]: 8.72E-03 mGy/MBq
Estimated Absorbed Dose of Organ, Stomach Wall [4]: 9.21E-03 mGy/MBq
Estimated Absorbed Dose of Organ, Testes [4]: 9.57E-03 mGy/MBq
Estimated Absorbed Dose of Organ, Thymus [4]: 9.60E-03 mGy/MBq
Estimated Absorbed Dose of Organ, Thyroid [4]: 7.39E-03 mGy/MBq
Estimated Absorbed Dose of Organ, ULI Wall [4]: 1.01E-02 mGy/MBq
Estimated Absorbed Dose of Organ, Urinary Bladder Wall [4]: 1.43E-01 † mGy/MBq
Estimated Absorbed Dose, Total Body [4]: 9.30E-03 mGy/MBq
